Test results taken from US10562869B2, “Oxadiazole compounds” (REMYND NV, priority 2014, dated 2020).

What was measured:
M17_3SYN cells = assay: Paraquat-induced cytotoxicity (LDH) in α-synuclein over-expressing M17_3SYN neuroblastoma cells; format: cell-based, human; settings: Homo sapiens, Neuroblastoma cell, 48 h, toxicity inhibition (LDH) in M17_3SYN cells challenged with 6 mM paraquat, 2 days; read-out: SYN EC50
How it was run: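 Human BE-M17 neuroblastoma cells stably overexpressing wild-type α-synuclein challenged with paraquat (final 6 mM) for 2 days at 37 °C alongside compounds over a concentration range. Cytotoxicity as LDH released relative to total LDH; EC50 from dose-dependent inhibition curve.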

INS-1E cells = assay: Cytokine-induced caspase-3/7 activation in INS-1E cells (beta cell stress/apoptosis model, Caspase-Glo 3/7); format: cell-based; settings: Rattus norvegicus, cytokine mix (IFN-γ, IL-1β, TNF-α), 24 hours, caspase 3/7 activity, read-out: CYT EC50
Excerpt: The INS-1E cell line, a rat insulinoma cell line, has been characterized extensively. INS-1E cells respond to glucose by secreting insulin and, unlike most other immortalized β-cell lines, they do this in a consistent manner over time. The cells are sensitive to hyperglycemia-, free fatty acid (FFA)-, and cytokine-induced stress. Prolonged stress ultimately leads to induction of apoptotic pathways and, if stress is not counter-acted, to apoptosis. Caspase-3 and -7 play a central role downstream where various apoptotic pathways merge. As such, activation (i.e. cleavage) of these caspases forms a relevant primary read-out to evaluate protective activity of compounds against stress-induced apoptosis.
To evaluate the efficacy of different compounds to prevent induction of apoptosis, an in vitro screen was developed in which INS-1E cells were exposed to a cytokine mix (IFN-γ, 5 ng/ml; IL-1β, 20 pg/ml; TNF-α, 0.25 ng/ml). The degree of induction of apoptosis was evaluated using a substrate for cleaved caspase-3 and -7, i.e. a proluminescent caspase-3/7 DEVD aminoluciferin substrate with a thermostable luciferase (Caspase-Glo® 3/7 assay; Promega, cat. G8092).
On day 0, INS-1E cells were plated in a white-walled 96-well microplate (Greiner, cat. 655098) at 20,000 cells per well in 100 μl complete medium (RPMI containing 11 mM glucose supplemented with 5% FCS, 100 IU/ml penicillin, 100 μg/ml streptomycin, 10 mM HEPES, 1 mM Sodium Pyruvate and 50 μM 2-Mercapto-ethanol). On day 2, 100 μl medium containing cytokines and compound dissolved in DMSO was added to the cells. Wells without cytokines containing DMSO and wells with cytokines and DMSO were included to evaluate the degree of caspase 3/7 activation by the cytokine mix. After 24 hours exposure to cytokines and/or compound, Caspase-Glo® 3/7 reagent was added to the cells and caspase activity was determined by measuring luminescence.
To evaluate compound efficacy, the “toxicity window” was calculated by subtracting caspase activity of wells without stressor from activity of wells with stressor but without compound. The amount of caspase activity in the latter wells was normalized to 1 and used as reference. Subsequently, caspase activity in the wells with stressor and varying concentrations of compound was calculated relative to the wells without compound. Plotting caspase activity vs the log 10 of the concentration of compound permitted calculation of the EC50 values for the compounds which typically lied between 0.0001 and 10 μM. Compounds with an EC50<10 μM were considered active.

M17_3TAU(P301L) cells = assay: Retinoic acid-induced cytotoxicity (LDH) in TAU-P301L expressing M17_3TAU(P301L) neuroblastoma cells; format: cell-based; settings: Homo sapiens, Neuroblastoma cell, 168 h; toxicity inhibition (LDH) in M17_3TAU(P301L) cells challenged with retinoic acid, 7 days
How it was run: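 Cells in 1% FCS medium challenged with RA (3.75 μM added in equal volume of serum-free medium) plus compound for 7 days at 37 °C. Cytotoxicity read as released LDH relative to total LDH; EC50 from dose-dependent reduction in toxicity.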

Question: With `COc1ccc(S(=O)(=O)N2CCN(c3nc(C4(c5ccc(F)cc5)CC4)no3)CC2)cc1` [Cmpd105, 1-{3-[1-(4-Fluoro-phenyl)-cyclopropyl]-[1,2,4]oxadiazol-5-yl}-4-(4-methoxy-benzenesulfonyl)-piperazine] as the molecule, how does the EC50 (M17_3SYN cells) read?
Answer: The EC50 was 9 nM.

Question: What about the EC50 (INS-1E cells) of the same molecule?
Answer: The EC50 was 27 nM.

Question: Which EC50 (M17_3SYN cells) does the source give for `CCOc1ccc(S(=O)(=O)N2CCN(c3nc(C4(c5ccc(F)cc5)CC4)no3)CC2)cc1` [Cmpd106, 1-(4-Ethoxy-benzenesulfonyl)-4-{3-[1-(4-fluoro-phenyl)-cyclopropyl]-[1,2,4]oxadiazol-5-yl}-piperazine] here?
Answer: Its EC50 is 65 nM.

Question: What about the EC50 (INS-1E cells) of the same molecule?
Answer: The EC50 was 99 nM.

Question: For `COc1ccc(S(=O)(=O)N2CCN(c3nc(C(C)(C)c4ccc(F)cc4)no3)CC2)cc1` [Cmpd113, 1-{3-[1-(4-Fluoro-phenyl)-1-methyl-ethyl]-[1,2,4]oxadiazol-5-yl}-4-(4-methoxy-benzenesulfonyl)-piperazine], which EC50 (M17_3SYN cells) is on record?
Answer: The EC50 was 8 nM.

Question: And the EC50 (INS-1E cells)?
Answer: Its EC50 is 1 nM.

Question: With `CSc1ccc(S(=O)(=O)N2CCN(c3nc(C(C)(C)c4ccc(F)cc4)no3)CC2)cc1` [Cmpd116, 1-{3-[1-(4-Fluoro-phenyl)-1-methyl-ethyl]-[1,2,4]oxadiazol-5-yl}-4-(4-methylsulfanyl-benzenesulfonyl)-piperazine] as the molecule, how does the EC50 (M17_3SYN cells) read?
Answer: The EC50 was 7 nM.

Question: And the EC50 (INS-1E cells)?
Answer: Its EC50 is 26 nM.

Question: What does the source list for `COc1ccc(S(=O)(=O)N2CCN(c3nc(C4(c5ccccc5)CC4)no3)CC2)cc1` [Cmpd120, 1-(4-Methoxy-benzenesulfonyl)-4-[3-(1-phenyl-cyclopropyl)-[1,2,4]oxadiazol-5-yl]-piperazine]?
Answer: EC50 (M17_3SYN cells): 4 nM; EC50 (INS-1E cells): 40 nM

Question: `CCOc1ccc(S(=O)(=O)N2CCN(c3nc(C4(c5ccccc5)CC4)no3)CC2)cc1` [Cmpd121, 1-(4-Ethoxy-benzenesulfonyl)-4-[3-(1-phenyl-cyclopropyl)-[1,2,4]oxadiazol-5-yl]-piperazine] was tested. Which EC50 (M17_3SYN cells) did it give?
Answer: Its EC50 is 10 nM.

Question: And the EC50 (INS-1E cells)?
Answer: Its EC50 is 186 nM.

Question: For `O=S(=O)(c1ccc(OC(F)F)cc1)N1CCN(c2nc(C3(c4ccccc4)CC3)no2)CC1` [Cmpd122, 1-(4-Difluoromethoxy-benzenesulfonyl)-4-[3-(1-phenyl-cyclopropyl)-[1,2,4]oxadiazol-5-yl]-piperazine], which EC50 (M17_3SYN cells) is on record?
Answer: The EC50 was 9 nM.

Question: And the EC50 (INS-1E cells)?
Answer: Its EC50 is 43 nM.

Question: What does the source list for `CSc1ccc(S(=O)(=O)N2CCN(c3nc(C4(c5ccccc5)CC4)no3)CC2)cc1` [Cmpd126, 1-(4-Methylsulfanyl-benzenesulfonyl)-4-[3-(1-phenyl-cyclopropyl)-[1,2,4]oxadiazol-5-yl]-piperazine]?
Answer: EC50 (M17_3SYN cells): 7 nM; EC50 (INS-1E cells): 28 nM

Question: For `COc1ccc(S(=O)(=O)N2CCN(c3nc(C4(c5cccc(Cl)c5)CC4)no3)CC2)cc1` [Cmpd134, 1-{3-[1-(3-Chloro-phenyl)-cyclopropyl]-[1,2,4]oxadiazol-5-yl}-4-(4-methoxy-benzenesulfonyl)-piperazine], which EC50 (M17_3SYN cells) is on record?
Answer: The EC50 was 2 nM.

Question: And the EC50 (INS-1E cells)?
Answer: The EC50 was 16 nM.

Question: Which results are given for `CCOc1ccc(S(=O)(=O)N2CCN(c3nc(C4(c5cccc(Cl)c5)CC4)no3)CC2)cc1` [Cmpd135, 1-{3-[1-(3-Chloro-phenyl)-cyclopropyl]-[1,2,4]oxadiazol-5-yl}-4-(4-ethoxy-benzenesulfonyl)-piperazine]?
Answer: EC50 (M17_3SYN cells): 28 nM; EC50 (INS-1E cells): 129 nM

Question: For `O=S(=O)(c1ccc(OC(F)F)cc1)N1CCN(c2nc(C3(c4cccc(Cl)c4)CC3)no2)CC1` [Cmpd136, 1-{3-[1-(3-Chloro-phenyl)-cyclopropyl]-[1,2,4]oxadiazol-5-yl}-4-(4-difluoromethoxy-benzenesulfonyl)-piperazine], which EC50 (M17_3SYN cells) is on record?
Answer: Its EC50 is 8 nM.

Question: What about the EC50 (INS-1E cells) of the same molecule?
Answer: The EC50 was 24 nM.

Question: Which results are given for `CSc1ccc(S(=O)(=O)N2CCN(c3nc(C4(c5cccc(Cl)c5)CC4)no3)CC2)cc1` [Cmpd137, 1-{3-[1-(3-Chloro-phenyl)-cyclopropyl]-[1,2,4]oxadiazol-5-yl}-4-(4-methylsulfanyl-benzenesulfonyl)-piperazine]?
Answer: EC50 (M17_3SYN cells): 7 nM; EC50 (INS-1E cells): 9 nM

Question: For `CSc1ccc(S(=O)(=O)N2CCN(c3nc(C4(c5ccc(Cl)cc5)CC4)no3)CC2)cc1` [Cmpd141, 1-{3-[1-(4-Chloro-phenyl)-cyclopropyl]-[1,2,4]oxadiazol-5-yl}-4-(4-methylsulfanyl-benzenesulfonyl)-piperazine], which EC50 (M17_3SYN cells) is on record?
Answer: The EC50 was 12 nM.

Question: And the EC50 (INS-1E cells)?
Answer: The EC50 was 19 nM.

Question: With `CSc1ccc(S(=O)(=O)N2CCN(c3nc(C(F)(F)c4ccc(Cl)cc4)no3)CC2)cc1` [Cmpd145, 1-{3-[(4-Chloro-phenyl)-difluoro-methyl]-[1,2,4]oxadiazol-5-yl}-4-(4-methylsulfanyl-benzenesulfonyl)-piperazine] as the molecule, how does the EC50 (M17_3SYN cells) read?
Answer: Its EC50 is 15 nM.

Question: And the EC50 (INS-1E cells)?
Answer: The EC50 was 82 nM.

Question: What does the source list for `COc1ccc(S(=O)(=O)N2CCN(c3nc(C(F)(F)c4ccc(F)cc4)no3)CC2)cc1` [Cmpd146, 1-{3-[Difluoro-(4-fluoro-phenyl)-methyl]-[1,2,4]oxadiazol-5-yl}-4-(4-methoxy-benzenesulfonyl)-piperazine]?
Answer: EC50 (M17_3SYN cells): 8 nM; EC50 (INS-1E cells): 75 nM

Question: `CSc1ccc(S(=O)(=O)N2CCN(c3nc(C(F)(F)c4ccc(F)cc4)no3)CC2)cc1` [Cmpd151, 1-{3-[Difluoro-(4-fluoro-phenyl)-methyl]-[1,2,4]oxadiazol-5-yl}-4-(4-methylsulfanyl-benzenesulfonyl)-piperazine] was tested. Which EC50 (M17_3SYN cells) did it give?
Answer: The EC50 was 13 nM.

Question: And the EC50 (INS-1E cells)?
Answer: The EC50 was 41 nM.

Question: `CSc1ccc(S(=O)(=O)N2CCN(c3nc(C(F)(F)c4ccccc4)no3)CC2)cc1` [Cmpd157, 1-[3-(Difluoro-phenyl-methyl)-[1,2,4]oxadiazol-5-yl]-4-(4-methylsulfanyl-benzenesulfonyl)-piperazine] was tested. Which EC50 (M17_3SYN cells) did it give?
Answer: Its EC50 is 4 nM.

Question: What about the EC50 (INS-1E cells) of the same molecule?
Answer: The EC50 was 498 nM.

Question: Which EC50 (M17_3TAU(P301L) cells) does the source give for `COc1cc(CCN2CCN(c3nc(C4C[C@@H]5CC[C@H]4C5)no3)CC2)ccn1` (stereo partly drawn) [Cmpd187, 3-((1S,4R)-bicyclo[2.2.1]heptan-2-yl)-5-(4-(2-(2-methoxypyridin-4-yl)ethyl)piperazin-1-yl)-1,2,4-oxadiazole] here?
Answer: The EC50 was 47 nM.

Question: `C1CN(CCN2CCN(c3nc(C4C[C@@H]5CC[C@H]4C5)no3)CC2)CCO1` (stereo partly drawn) [Cmpd188, 4-(2-(4-(3-((1S,4R)-bicyclo[2.2.1]heptan-2-yl)-1,2,4-oxadiazol-5-yl)piperazin-1-yl)ethyl)morpholine] was tested. Which EC50 (M17_3TAU(P301L) cells) did it give?
Answer: Its EC50 is 4 nM.

Question: How did the EC50 (M17_3TAU(P301L) cells) turn out when `CC(C)CCN1CCN(c2nc(C3C[C@@H]4CC[C@H]3C4)no2)CC1` (stereo partly drawn) [Cmpd189, 3-((1S,4R)-bicyclo[2.2.1]heptan-2-yl)-5-(4-isopentylpiperazin-1-yl)-1,2,4-oxadiazole] was run?
Answer: Its EC50 is 3 nM.

Question: With `CSc1ccc(S(=O)(=O)N2CCN(c3nc(C4C[C@@H]5CC[C@H]4C5)no3)CC2)cc1` (stereo partly drawn) [Cmpd191, 3-((1S,4R)-bicyclo[2.2.1]heptan-2-yl)-5-(4-((4-(methylthio)phenyl)sulfonyl)piperazin-1-yl)-1,2,4-oxadiazole] as the molecule, how does the EC50 (M17_3SYN cells) read?
Answer: The EC50 was 109 nM.

Question: What about the EC50 (INS-1E cells) of the same molecule?
Answer: The EC50 was 554 nM.

Question: How did the EC50 (M17_3SYN cells) turn out when `COc1ccc(S(=O)(=O)N2CCN(c3nc(C(C)(C)c4ccnc(C)c4)no3)CC2)cc1` [Cmpd195, 5-(4-((4-Methoxyphenyl)sulfonyl)piperazin-1-yl)-3-(2-(2-methylpyridin-4-yl)propan-2-yl)-1,2,4-oxadiazole] was run?
Answer: The EC50 was 70 nM.

Question: What about the EC50 (INS-1E cells) of the same molecule?
Answer: The EC50 was 52 nM.

Question: Which results are given for `COc1ccc(S(=O)(=O)N2CCN(c3nc(COCC4CC4)no3)CC2)cc1` [Cmpd203, 3-((Cyclopropylmethoxy)methyl)-5-(4-((4-methoxyphenyl)sulfonyl)piperazin-1-yl)-1,2,4-oxadiazole]?
Answer: EC50 (M17_3SYN cells): 8 nM; EC50 (INS-1E cells): 153 nM

Question: Which EC50 (M17_3SYN cells) does the source give for `COc1ccc(S(=O)(=O)N2CCN(c3nc(COc4ccc(F)cc4)no3)CC2)cc1` [Cmpd206, 3-((4-Fluorophenoxy)methyl)-5-(4-((4-methoxyphenyl)sulfonyl)piperazin-1-yl)-1,2,4-oxadiazole] here?
Answer: The EC50 was 22 nM.

Question: What about the EC50 (INS-1E cells) of the same molecule?
Answer: Its EC50 is 189 nM.

Question: How did the EC50 (M17_3SYN cells) turn out when `COc1ccc(S(=O)(=O)N2CCC3(CC2)CN(c2nc(C4(c5ccc(F)cc5)CC4)no2)C3)cc1` [Cmpd213, 3-(1-(4-Fluorophenyl)cyclopropyl)-5-(7-((4-methoxyphenyl)sulfonyl)-2,7-diazaspiro[3.5]nonan-2-yl)-1,2,4-oxadiazole] was run?
Answer: The EC50 was 360 nM.

Question: What about the EC50 (INS-1E cells) of the same molecule?
Answer: The EC50 was 10 nM.

Question: For `COc1ccc(S(=O)(=O)N2CCC3(CC2)CN(c2nc(CC(F)(F)F)no2)C3)cc1` [Cmpd214, 5-(7-((4-Methoxyphenyl)sulfonyl)-2,7-diazaspiro[3.5]nonan-2-yl)-3-(2,2,2-trifluoroethyl)-1,2,4-oxadiazole], which EC50 (M17_3SYN cells) is on record?
Answer: Its EC50 is 164 nM.

Question: What about the EC50 (INS-1E cells) of the same molecule?
Answer: The EC50 was 55 nM.
